Consider 25 molecules from ChEMBL document CHEMBL5126580, “Design, synthesis and biological evaluation of 2-pyrrolone derivatives as radioprotectors” (Bioorg Med Chem, 2022).

Active and inactive are the calls of the source. No cut-off for these calls is given here.

In series [1] the test system is MOLT-4. The series can be described thus: Cytotoxicity against human MOLT-4 cells assessed as reduction in cell viability measured after 1 hr by erythrosin B staining based dye exclusion assay. The series is classed as toxicity. The note with it: molt-4, 1 h.
Series [2] has as its target Cellular tumor antigen p53 (Homo sapiens) (UniProt P04637). The series can be described thus: Inhibition of p53 in human MOLT-4 cells assessed as suppression of gamma-irradiation-induced decrease in cell viability at 20 to 100 uM preincubated for 1 hr followed by 10 Gy 137Cs gamma-ray exposure and measured after 27 hrs by erythrosin B staining based dye exclusion assay. The note with it: dose 20-100 µM, time 28.0 hrs.

Series [3] has as its system MOLT-4. The series can be described thus: Radioprotective activity in gamma-irradiated human MOLT-4 cells assessed as reduction in p53 expression at 3 to 100 uM preincubated for 1 hr followed by 10 Gy 137Cs gamma-ray exposure and measured after 6 hrs by Western blot analysis. The series is classed as functional, cell-based. The note with it: dose 3-100 µM, time 7.0 hrs.

Series [4] addresses Cellular tumor antigen p53 (Homo sapiens) (UniProt P04637). As to the kind of experiment: Inhibition of p53 in human MOLT-4 cells assessed as suppression of gamma-irradiation-induced decrease in cell viability at 20 uM preincubated for 1 hr followed by 10 Gy 137Cs gamma-ray exposure and measured after 27 hrs by erythrosin B staining based dye exclusion assay. Particulars: time 28.0 hrs.

The test system of series [5] is MOLT-4. As to the kind of experiment: Cytotoxicity against human MOLT-4 cells assessed as reduction in cell viability at 80 uM measured after 1 hr by erythrosin B staining based dye exclusion assay. The series is classed as toxicity. The note with it: molt-4, 1 h.
For series [6], the target named is Cellular tumor antigen p53 (Homo sapiens) (UniProt P04637). As to the kind of experiment: Inhibition of p53 in human MOLT-4 cells assessed as suppression of gamma-irradiation-induced decrease in cell viability at 50 to 100 uM preincubated for 1 hr followed by 10 Gy 137Cs gamma-ray exposure and measured after 27 hrs by erythrosin B staining based dye exclusion assay. Particulars: dose 50-100 µM, time 28.0 hrs.

The target is the same in series [7]. The series can be described thus: Inhibition of p53 in human MOLT-4 cells assessed as suppression of gamma-irradiation-induced decrease in cell viability at 40 uM preincubated for 1 hr followed by 10 Gy 137Cs gamma-ray exposure and measured after 27 hrs by erythrosin B staining based dye exclusion assay. Particulars: time 28.0 hrs.
The subject of series [8] is MOLT-4. As to the kind of experiment: Cytotoxicity against human MOLT-4 cells assessed as reduction in cell viability at 10 to 20 uM measured after 1 hr by erythrosin B staining based dye exclusion assay. The series is classed as toxicity. Particulars: molt-4, 1 h, dose 10-20 µM.
The test system of series [9] is MOLT-4. As to the kind of experiment: Cytotoxicity against human MOLT-4 cells assessed as reduction in cell viability at 40 uM measured after 1 hr by erythrosin B staining based dye exclusion assay. Particulars: molt-4, 1 h. The series is classed as toxicity.

Chain of Cellular tumor antigen p53 (Homo sapiens) (P04637 whole entry, looked up): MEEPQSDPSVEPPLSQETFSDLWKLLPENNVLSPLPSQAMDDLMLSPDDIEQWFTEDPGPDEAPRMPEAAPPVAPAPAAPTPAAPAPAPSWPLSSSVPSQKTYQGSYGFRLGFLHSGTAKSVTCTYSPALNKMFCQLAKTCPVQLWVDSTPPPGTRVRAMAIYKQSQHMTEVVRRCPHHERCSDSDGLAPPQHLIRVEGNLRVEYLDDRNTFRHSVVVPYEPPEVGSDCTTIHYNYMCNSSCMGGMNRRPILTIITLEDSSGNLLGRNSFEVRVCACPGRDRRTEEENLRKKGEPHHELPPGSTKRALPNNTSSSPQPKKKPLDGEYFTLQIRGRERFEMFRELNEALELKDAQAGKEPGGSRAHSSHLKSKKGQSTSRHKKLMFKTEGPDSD

On to `CCCCCCOC(=O)C1=C(C)N(c2cccc(OC)c2)C(=O)/C1=C\c1ccc(C(=O)O)cc1`, for which, in the series on MOLT-4 [1], the Activity entry is reported as “Toxic”.
Turning to `COC(=O)C1=C(C)N(c2cccc(OC)c2)C(=O)/C1=C\c1ccc(Cl)cc1`, the Activity result in the series on MOLT-4 [1] is recorded as “Toxic”.
For `COC(=O)C1=C(C)N(c2ccc(OC)cc2)C(=O)/C1=C\c1ccc(C(=O)O)cc1`, the inhibition entry in [2] is “Active”.
With `COc1cccc(N2C(=O)/C(=C\c3ccc(C(=O)O)cc3)C(C(=O)OC(C)(C)C)=C2C)c1`, the Activity result in the series on MOLT-4 [1] is reported as “Toxic”.
On to `COC(=O)C1=C(C)N(c2cccc(OC)c2)C(=O)/C1=C\c1ccc([N+](=O)[O-])cc1`, for which the Activity entry in the series with MOLT-4 [1] is reported as “Toxic”.
For the molecule `COC(=O)C1=C(C)N(c2cccc(OC(C)C)c2)C(=O)/C1=C\c1ccc(C(=O)O)cc1`, the result in the series with MOLT-4 [3] was Active. Also, in series [4], the inhibition entry was “Active”. Besides, the Activity entry in the series with MOLT-4 [5] is given as “Toxic”.
As to `COC(=O)C1=C(C)N(c2cccc(OC)c2)C(=O)/C1=C\c1ccncc1O`, the Activity entry in the series on MOLT-4 [1] is “Toxic”.
Turning to `CCOC(=O)C1=C(C)N(c2cccc(OC)c2)C(=O)/C1=C\c1ccc(C(=O)O)cc1`, the inhibition result in [2] was “Active”.
Regarding `COC(=O)C1=C(C)N(c2cccc(O)c2)C(=O)/C1=C\c1ccc(C(=O)O)cc1`, in series [6], the inhibition result is “Active”.
As to `COC(=O)C1=C(C)N(c2cccc(OC)c2)C(=O)/C1=C\c1ccc(C(=O)O)cc1`, the outcome with MOLT-4 [3] was Active. Also, the inhibition result in series [4] is “Active”. The Activity result with MOLT-4 [5] was “Toxic”.
On to `COC(=O)C1=C(C)N(c2cccc(OC)c2)C(=O)/C1=C\c1ccc(OC)cc1`, for which, in the series with MOLT-4 [1], the Activity entry is “Toxic”.
For the molecule `COC(=O)C1=C(C)N(c2cccc(OC)c2)C(=O)/C1=C\c1ccccc1S(=O)(=O)[O-].[Na+]`, the Activity result with MOLT-4 [1] is reported as “Non-Toxic”.
Regarding `COC(=O)C1=C(C)N(c2cccc(OC)c2)C(=O)/C1=C\c1ccc(-c2nnn[nH]2)cc1`, in the series with MOLT-4 [3], the outcome was Active. The inhibition result in [2] is “Active”.
`CCOC(=O)c1ccc(/C=C2\C(=O)N(c3cccc(OC)c3)C(C)=C2C(=O)OC)cc1`: the Activity result in the series on MOLT-4 [1] is listed as “Toxic”.
As for `COC(=O)C1=C(C)N(c2cccc(OC)c2)C(=O)/C1=C\c1ccncc1`, in the series with MOLT-4 [1], the Activity result is “Toxic”.
Same read-out and setting: then `COC(=O)C1=C(C)N(c2cccc(OC)c2)C(=O)/C1=C\c1cncnc1`, with “Toxic”.
On to `COC(=O)C1=C(C)N(c2cccc(OC)c2)C(=O)/C1=C/c1ccc(C(=O)O)cc1`, for which the inhibition entry in series [2] is “Active”.
For the molecule `COC(=O)C1=C(C)N(c2ccccc2OC)C(=O)/C1=C\c1ccc(C(=O)O)cc1`, the inhibition entry in series [2] is “Active”.
On to `COC(=O)C1=C(C)N(c2cccc(OC)c2)C(=O)/C1=C\c1ccc(S(N)(=O)=O)cc1`, for which, in the series on MOLT-4 [1], the Activity entry is on record as “Toxic”.
For the molecule `COC(=O)C1=C(C)N(c2cccc(OC)c2)C(=O)C1=Cc1ccc(C(=O)O)cc1`, the inhibition entry in series [2] was “Active”.
Take `COC(=O)C1=C(C)N(c2cccc(OC)c2)C(=O)/C1=C\c1ccc(C(=O)NO)cc1`: the inhibition entry in [7] was “Active”. In addition, the Activity entry in the series on MOLT-4 [8] is given as “Toxic”; with MOLT-4 [9], “Non-Toxic”.
For `COC(=O)C1=C(C)N(c2cccc(OC)c2)C(=O)/C1=C\c1cccc(C(=O)O)c1`, the inhibition result in [2] is “Active”.
On to `COC(=O)C1=C(C)N(c2ccccc2)C(=O)/C1=C\c1ccc(C(=O)O)cc1`, for which the inhibition entry in [2] is “Active”.
With `CCCCCCOc1cccc(N2C(=O)/C(=C\c3ccc(C(=O)O)cc3)C(C(=O)OC)=C2C)c1`, in the series on MOLT-4 [1], the Activity entry is “Toxic”.
For the molecule `CNC(=O)C1=C(C)N(c2cccc(OC)c2)C(=O)/C1=C\c1ccc(C(=O)O)cc1`, the inhibition result in series [6] was “Active”.
